For 11 molecules, IC50 results are on record in ChEMBL document CHEMBL1146663, “Anti-inflammatory flavonoids and pterocarpanoid from Crotalaria pallida and C. assamica” (Bioorg Med Chem Lett, 2004).

A word on the IC50: it is the concentration at which inhibition is half-maximal. Low readings indicate greater potency, high ones weaker potency.

For experiment [1], the species on record is Rattus norvegicus. The experiment can be described thus: Inhibitory effect of compound on superoxide anion generation in rat neutrophils stimulated with PMA. The class given is functional.
For experiment [2], the species on record is Rattus norvegicus. The experiment can be described thus: Inhibitory effect of compound on superoxide anion generation in rat neutrophils stimulated with fMLP/CB. The class given is functional.
The species entered for experiment [3] is Mus musculus. The experiment can be described thus: Inhibitory effect of compound on the accumulation of NO2 in the culture media of N9 cells in response to LPS/IFN-gamma. It counts as functional, cell-based.
For experiment [4], the species on record is Mus musculus. The experiment in a line: Inhibitory effect of compound on the accumulation of NO2 in the culture media of RAW 264.7 cells in response to LPS. It counts as functional, cell-based.
Experiment [5] is filed under the species Mus musculus. The experiment in a line: Inhibitory effect of compound on the accumulation of NO2 in the culture media of N9 cells in response to LPS/IFN-gamma; potent effect. It counts as functional.
Experiment [6] is filed under the species Mus musculus. The experiment in a line: Inhibitory effect of compound on the accumulation of NO2 in the culture media of RAW 264.7 cells in response to LPS; potent effect. It counts as functional.

Take `CN1CCN(CCCN2c3ccccc3Sc3ccc(C(F)(F)F)cc32)CC1` [TRIFLUOPERAZINE]: the IC50 worked out at 2.7 µM in the experiment listed under Rattus norvegicus [1] and 6.6 µM in the experiment filed under Rattus norvegicus [2].

For the molecule `O=c1c(-c2ccc(O)cc2O)coc2cc(O)ccc12`, the IC50 in the experiment filed under Rattus norvegicus [1] is greater than 30 µM; in the experiment listed under Rattus norvegicus [2], 25.1 µM; in the experiment listed under Mus musculus [3], greater than 30 µM; in the experiment filed under Mus musculus [4], greater than 30 µM.

With `O=c1c(-c2ccc(O)cc2O)coc2cc(O)cc(O)c12`, the IC50 in the experiment listed under Rattus norvegicus [1], in the experiment listed under Rattus norvegicus [2], in the experiment listed under Mus musculus [3] and in the experiment listed under Mus musculus [4] was greater than 30 µM throughout.

As to `CC(=N)NCc1cccc(CN)c1` [1400W], the IC50 in the experiment filed under Mus musculus [3] was determined as 2.2 µM; in the experiment filed under Mus musculus [4], 6.1 µM.

For `C=C(C)c1cc2c3c(ccc2o1)[C@@H]1COc2cc(O)ccc2[C@@H]1O3` [CROTAFURAN A], the IC50 entry in the experiment listed under Mus musculus [5] and in the experiment filed under Mus musculus [6] was “potent effect” each time.

Turning to `COc1cc(O)ccc1-c1coc2cc(O)cc(O)c2c1=O` [THERALIN], the half-maximal inhibitory concentration (IC50) in the experiment listed under Rattus norvegicus [1], in the experiment listed under Rattus norvegicus [2], in the experiment listed under Mus musculus [3] and in the experiment filed under Mus musculus [4] was greater than 30 µM in each case.

Consider `O=c1c(O)c(-c2ccc(O)cc2)oc2cc(OC3O[C@H](CO)[C@@H](O)[C@H](O)[C@H]3O)cc(O)c12` (stereo partly specified), for which the IC50 in the experiment listed under Rattus norvegicus [1], in the experiment filed under Rattus norvegicus [2], in the experiment listed under Mus musculus [3] and in the experiment listed under Mus musculus [4] was greater than 30 µM in each case.

As for `O=c1cc(-c2ccc(O)cc2)oc2cc(O)cc(O)c12` [APIGENIN], the IC50 is greater than 30 µM in the experiment filed under Rattus norvegicus [1], 3.4 µM in the experiment listed under Rattus norvegicus [2], greater than 30 µM in the experiment listed under Mus musculus [3] and 10.7 µM in the experiment filed under Mus musculus [4].

In the case of `C[C@](O)(CO)c1cc2c3c(ccc2o1)[C@@H]1COc2cc(O)ccc2[C@@H]1O3`, the IC50 in the experiment filed under Rattus norvegicus [1] was greater than 30 µM; in the experiment filed under Rattus norvegicus [2], greater than 30 µM; in the experiment listed under Mus musculus [3] it was 13.9 µM; in the experiment filed under Mus musculus [4] it was greater than 30 µM.

Turning to `O=c1cc(-c2ccc(O)cc2)oc2cc(O)ccc12`, the IC50 in the experiment listed under Rattus norvegicus [1], in the experiment filed under Rattus norvegicus [2], in the experiment filed under Mus musculus [3] and in the experiment filed under Mus musculus [4] was greater than 30 µM in each case.

Consider `CC(=O)c1cc2c3c(ccc2o1)[C@@H]1COc2cc(O)ccc2[C@@H]1O3` [CROTAFURAN B], for which the IC50 entry in the experiment listed under Mus musculus [5] and in the experiment filed under Mus musculus [6] was “potent effect” in each case.
